Patent US20250041377A1, “PHARMACEUTICAL USE” (ENLITISA (SHANGHAI) PHARMACEUTICAL CO., LTD., priority 2018, published 2025)
Where a SMILES comes first, the peptide text is derived from it. Where no end group is shown, it is not given here. [ ]: non-standard residue; d: D form. Dopa = N[C@@H](Cc1ccc(O)c(O)c1)C(=O)O; Hyp = O=C(O)[CH]1C[CH](O)CN1; 3Hyp = 3-hydroxyproline

What was measured:
[1] = test system: Hyp, VEGF and TGF-β1 in wound tissue; assay: Acute wound model, ELISA of wound tissue; type: in vivo, C57BL/6 mice; details: for wound Hyp content (Mean): indicator of collagen regeneration; for TGF-β1 content (Mean): wound tissue
From the text: The model group was given same amount of normal saline. There were 8 mice in each group.
Samples were taken at Day 4 and Day 7 post-wound infliction. The mice were sacrificed and the wound tissue taken by the same biopsy punch used to create the wound. Then 5 mm of tissue was cut off from the center of the sample and was preserved in 10% neutral buffered formalin (Nanchang Rain Dew Experimental Equipment Co., Ltd., Nanchang, Hubei Province, China), and analyzed by histological embedding (HE) in paraffin wax, sectioning and staining.
The rest of the samples were stored at −80° C. for further analysis. Tissue was cut into small pieces and liquid nitrogen was added to increase brittleness. 9 mL of normal saline was added to 1 g of tissue, which was then ground using a Tissuelyser (Shanghai Jingxin Industrial Development Co., Ltd., Shanghai, China) at 55 Hz for 60 seconds, followed by centrifuging at 8000 rpm for 10 minutes at 4° C.
The supernatant was collected, and the extracted protein was used for ELISA analysis using standard ELISA test kits and an ELISA reader (SH-1000 Hitachi, Japan). Vascular endothelial growth factor (VEGF), transforming growth factor beta 1 (TGF-β1) and hydroxyproline (Hyp) were assayed. The ELISA kits were purchased from Beijing 4A Biotech Co., Ltd. (Beijing, China).

[2] = Stability in phosphate buffer at different pHs (colour, HPLC peak area, purity); type: physicochemical; set-up: key to change of colour: NO means no colour changed was observed; + means a slight colour change is observed; ++ means a significant colour change is observed; details: for stability (overall result): phosphate buffer pH 5.3, 7.2, 8.1, room temperature then 45° C., 6 days
Method: Stabilities of Compounds A and B (obtained as described in Examples 1 and 3 above) were tested as follows.
10 mg of the compounds were each dissolved in 1 mL of distilled water to make a stock solution with a concentration of 10 mg/mL. Then, 200 μL of the stock solutions were diluted with 20 mM phosphate buffer (PB; Sigma-Aldrich China) with different pHs as indicated in Table 8 below.
All of the samples above were filtered through a 0.22 μm membrane (SLGV033RS; Sigma-Aldrich China) to remove potential bacteria in the solution on a super-clean bench after being prepared.
All the samples above were stored at room temperature and, three days later, were transferred to a 45° C. oven after initial sample analysis by HPLC (Column: Angilent ZORBAX Eclipse XDB-C18 (4.6×250 mm; 5 μm) (SN: USNH008244); buffer: A: 0.1% TFA in Water; B: 0.1% TFA in ACN; gradient: 0-25 minutes: 5%-30% B; 25-30 min: 100% B; flow rate: 1 mL/min; detection wavelength: 220 nm; sample volume: 20 μL).
The stability of the above samples was studied by observing the change of colour (Table 9), HPLC peak areas (Table 10) and purity (Table 11). The pH values for all samples were measured as being stable during the testing period.

[3] = DPPH assay of antioxidant capacity; details: 200 μL peptide solution in 3.8 mL 0.06 mg/mL DPPH; 1.5 hours, room temperature, dark; absorbance 517 nm
Method: The antioxidant capacity of Compound B was determined using a 2,2-diphenyl-1-(2,4,6-trinitrophenyl) hydrazyl (DPPH) assay.
Compounds A and B were obtained as described in Example 3 above. The peptide powders were stored at −20° C. and dissolved in saline at concentrations as indicated below. DPPH was purchased from Sigma-Aldrich China, Shanghai. Other reagents employed and identified below were purchased from Shanghai Aladdin Bio-Chem Technology Co. Ltd., China.
The DPPH method is one of the most commonly used methods in determination of antioxidant capacity. DPPH is a stable, nitrogen-centred free radical with a dark purple solution and a maximum absorption peak at 517 nm. When a free radical scavenger is present in the reaction system, it can be paired with a single electron of DPPH., and the absorption peak at 517 nm is gradually dissipated.
The degree of colour change bears a stoichiometric relationship to the number of paired electrons. Thus, antioxidant activity can be measured according to the change of absorbance. The greater the inhibition rate, the stronger the antioxidant capacity. […]
200 μL of peptide solution was added to 3.8 mL of the DPPH solution. […] The absorbance at 517 nm was measured and was denoted as A1. The absorbance of the blank control sample was denoted as A0. Thus, the percentage of the […] is calculated as: Clearance rate (%)=[A0−A1]/A0×100

[4] = 20 mM phosphate buffer pH 5.3, Day 0
[5] = 20 mM phosphate buffer pH 7.2, Day 0
[6] = 20 mM phosphate buffer pH 8.1, Day 0
[7] = pH 5.3, Day 1, room temperature
[8] = pH 5.3, Day 3 (Transfer to 45° C.)
[9] = pH 7.2, Day 1, room temperature
[10] = pH 7.2, Day 3 (Transfer to 45° C.)
[11] = pH 8.1, Day 1, room temperature
[12] = pH 8.1, Day 3 (Transfer to 45° C.)

CC(N)C(=O)NC(CCCCN)C(=O)N1CCCC1C(=O)NC(CO)C(=O)NC(Cc1ccc(O)cc1)C(=O)N1CC(O)CC1C(=O)N1CC(O)CC1C(=O)NC(C(=O)NC(Cc1ccc(O)cc1)C(=O)NC(CCCCN)C(=O)O)C(C)O (stereo not drawn) [Compound B, Ala-Lys-Pro-Ser-Tyr-Hyp-Hyp-Thr-Tyr-Lys] (H-AKPSY[Hyp][Hyp]TYK-OH; configuration not given here)
wound Hyp content (Mean) ([1]; Day 4): 2.039 µg/mg | TGF-β1 content (Mean) ([1]; Day 4): 20571.8 pg/g | wound Hyp content (Mean) ([1]; Day 7): 2.810 µg/mg | TGF-β1 content (Mean) ([1]; Day 7): 18659.6 pg/g | increase of VEGF production in the wounded tissue ([1]; in comparison with model group): about 56.7% | HPLC peak area as area % of Day 0's result [2, 4]: 100% | change of colour [2, 4]: NO | purity (HPLC) in stability study [2, 4]: 99.2% | change of colour [2, 5]: NO | purity (HPLC) in stability study [2, 5]: 99.6% | HPLC peak area as area % of Day 0's result [2, 6]: 100% | change of colour [2, 6]: NO | purity (HPLC) in stability study [2, 6]: 99.5% | HPLC peak areas over time ([2]; at pH 7.2 and pH 8.1): decreased significantly | HPLC peak area as area % of Day 0's result [2, 7]: 100.0% | change of colour [2, 7]: NO | purity (HPLC) in stability study [2, 7]: 99.2% | HPLC peak area as area % of Day 0's result [2, 8]: 99.9% | change of colour [2, 8]: NO | purity (HPLC) in stability study [2, 8]: 98.4% | HPLC peak area as area % of Day 0's result ([2]; pH 5.3, Day 6 (45° C.)): 102.4% | change of colour ([2]; pH 5.3, Day 6 (45° C.)): NO | purity (HPLC) in stability study ([2]; pH 5.3, Day 6 (45° C.)): 99.0% | change of colour [2, 9]: NO | purity (HPLC) in stability study [2, 9]: 99.3% | HPLC peak area as area % of Day 0's result [2, 10]: 100% | change of colour [2, 10]: NO | purity (HPLC) in stability study [2, 10]: 98.7% | HPLC peak area as area % of Day 0's result ([2]; pH 7.2, Day 6 (45° C.)): 100.6% | change of colour ([2]; pH 7.2, Day 6 (45° C.)): NO | purity (HPLC) in stability study ([2]; pH 7.2, Day 6 (45° C.)): 98.2% | HPLC peak area as area % of Day 0's result [2, 11]: 98.9% | change of colour [2, 11]: NO | purity (HPLC) in stability study [2, 11]: 99.4% | HPLC peak area as area % of Day 0's result [2, 12]: 99.2% | change of colour [2, 12]: NO | purity (HPLC) in stability study [2, 12]: 98.4% | HPLC peak area as area % of Day 0's result ([2]; pH 8.1, Day 6 (45° C.)): 97.0% | change of colour ([2]; pH 8.1, Day 6 (45° C.)): NO | purity (HPLC) in stability study ([2]; pH 8.1, Day 6 (45° C.)): 96.4% | stability (overall result) [2]: stable at all pH values | HPLC peak areas over time ([2]; three samples, pH 5.3, 7.2, 8.1): almost unchanged | DPPH clearance rate [3]: 8.9%

Ala-Lys-Pro-Ser-Tyr-Hyp-Hyp-Thr-DOPA-Lys (AKPSY[3Hyp][Hyp]T[Dopa]K; listed as Mytilus edulis) [Compound A]
wound Hyp content (Mean) ([1]; Day 4): 3.676 µg/mg | TGF-β1 content (Mean) ([1]; Day 4): 11866.2 pg/g | wound Hyp content (Mean) ([1]; Day 7): 2.694 µg/mg | TGF-β1 content (Mean) ([1]; Day 7): 18074.8 pg/g | HPLC peak area as area % of Day 0's result [2, 4]: 100% | change of colour [2, 4]: NO | purity (HPLC) in stability study [2, 4]: 99.4% | HPLC peak area as area % of Day 0's result [2, 5]: 100% | change of colour [2, 5]: NO | purity (HPLC) in stability study [2, 5]: 98.9% | HPLC peak area as area % of Day 0's result [2, 6]: 100% | change of colour [2, 6]: NO | purity (HPLC) in stability study [2, 6]: 96.3% | oxidation judged by HPLC purity ([2]; at pH 7.2 and pH 8.1): most of Compound A was oxidized | HPLC peak area as area % of Day 0's result [2, 7]: 100.1% | change of colour [2, 7]: NO | purity (HPLC) in stability study [2, 7]: 99.2% | HPLC peak area as area % of Day 0's result [2, 8]: 100.3% | change of colour [2, 8]: NO | purity (HPLC) in stability study [2, 8]: 99.4% | HPLC peak area as area % of Day 0's result ([2]; pH 5.3, Day 6 (45° C.)): 99.6% | change of colour ([2]; pH 5.3, Day 6 (45° C.)): NO | purity (HPLC) in stability study ([2]; pH 5.3, Day 6 (45° C.)): 98.0% | HPLC peak area as area % of Day 0's result [2, 9]: 89.0% | change of colour [2, 9]: + | purity (HPLC) in stability study [2, 9]: 92.1% | HPLC peak area as area % of Day 0's result [2, 10]: 41.7% | change of colour [2, 10]: + | purity (HPLC) in stability study [2, 10]: 94.8% | HPLC peak area as area % of Day 0's result ([2]; pH 7.2, Day 6 (45° C.)): 11.5% | change of colour ([2]; pH 7.2, Day 6 (45° C.)): ++ | purity (HPLC) in stability study ([2]; pH 7.2, Day 6 (45° C.)): 13.8% | HPLC peak area as area % of Day 0's result [2, 11]: 64.8% | change of colour [2, 11]: ++ | purity (HPLC) in stability study [2, 11]: 61.0% | HPLC peak area as area % of Day 0's result [2, 12]: 21.7% | change of colour [2, 12]: ++ | purity (HPLC) in stability study [2, 12]: 52.5% | HPLC peak area as area % of Day 0's result ([2]; pH 8.1, Day 6 (45° C.)): 3.8% | change of colour ([2]; pH 8.1, Day 6 (45° C.)): ++ | purity (HPLC) in stability study ([2]; pH 8.1, Day 6 (45° C.)): 3.9% | stability (overall result) [2]: stable only at pH 5.3 | DPPH clearance rate [3]: 52.11%
